In ChEMBL document CHEMBL4507303, “Data for DCP probe TP-004” (2021):
Activity calls are given as the source filed them.

Assays:
[1] = target: Wee1-like protein kinase 2 (Homo sapiens) (UniProt P0C1S8); conditions: Compound concentration 1000.0 nM
[2] = target: Mitogen-activated protein kinase 6 (Homo sapiens) (UniProt Q16659); conditions: Compound concentration 1000.0 nM
[3] = system: Tyrosine-protein kinase ABL1 (Homo sapiens), P00519 [F317I]; conditions: Compound concentration 1000.0 nM
[4] = target: Tyrosine-protein kinase Fgr (Homo sapiens) (UniProt P09769); conditions: Compound concentration 1000.0 nM
[5] = target: Phosphorylase b kinase gamma catalytic chain, skeletal muscle/heart isoform (Homo sapiens) (UniProt Q16816); conditions: Compound concentration 1000.0 nM
[6] = target: Angiopoietin-1 receptor (Homo sapiens) (UniProt Q02763); conditions: Compound concentration 1000.0 nM
[7] = target: Tyrosine-protein kinase ABL1 (Homo sapiens) (UniProt P00519); conditions: Compound concentration 1000.0 nM
[8] = target: Mitogen-activated protein kinase 9 (Homo sapiens) (UniProt P45984); conditions: Compound concentration 1000.0 nM
[9] = target: Myosin light chain kinase, smooth muscle (Homo sapiens) (UniProt Q15746); conditions: Compound concentration 1000.0 nM
[10] = target: Cyclin-dependent kinase 3 (Homo sapiens) (UniProt Q00526); conditions: Compound concentration 1000.0 nM
Sequence of Cyclin-dependent kinase 3 (Homo sapiens) (Q00526 whole entry, looked up): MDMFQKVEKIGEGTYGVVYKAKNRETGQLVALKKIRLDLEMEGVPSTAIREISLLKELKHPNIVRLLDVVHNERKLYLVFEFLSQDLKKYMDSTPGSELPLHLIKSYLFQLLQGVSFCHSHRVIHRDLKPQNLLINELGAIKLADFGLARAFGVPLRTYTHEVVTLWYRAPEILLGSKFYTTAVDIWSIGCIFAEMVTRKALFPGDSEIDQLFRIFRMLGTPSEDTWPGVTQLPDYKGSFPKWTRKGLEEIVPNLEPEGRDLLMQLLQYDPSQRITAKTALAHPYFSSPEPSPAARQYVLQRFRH

[11] = target: Mitogen-activated protein kinase 10 (Homo sapiens) (UniProt P53779); conditions: Compound concentration 1000.0 nM
[12] = target: Serine/threonine-protein kinase DCLK2 (Homo sapiens) (UniProt Q8N568); conditions: Compound concentration 1000.0 nM
Sequence of Serine/threonine-protein kinase DCLK2 (Homo sapiens) (Q8N568 whole entry): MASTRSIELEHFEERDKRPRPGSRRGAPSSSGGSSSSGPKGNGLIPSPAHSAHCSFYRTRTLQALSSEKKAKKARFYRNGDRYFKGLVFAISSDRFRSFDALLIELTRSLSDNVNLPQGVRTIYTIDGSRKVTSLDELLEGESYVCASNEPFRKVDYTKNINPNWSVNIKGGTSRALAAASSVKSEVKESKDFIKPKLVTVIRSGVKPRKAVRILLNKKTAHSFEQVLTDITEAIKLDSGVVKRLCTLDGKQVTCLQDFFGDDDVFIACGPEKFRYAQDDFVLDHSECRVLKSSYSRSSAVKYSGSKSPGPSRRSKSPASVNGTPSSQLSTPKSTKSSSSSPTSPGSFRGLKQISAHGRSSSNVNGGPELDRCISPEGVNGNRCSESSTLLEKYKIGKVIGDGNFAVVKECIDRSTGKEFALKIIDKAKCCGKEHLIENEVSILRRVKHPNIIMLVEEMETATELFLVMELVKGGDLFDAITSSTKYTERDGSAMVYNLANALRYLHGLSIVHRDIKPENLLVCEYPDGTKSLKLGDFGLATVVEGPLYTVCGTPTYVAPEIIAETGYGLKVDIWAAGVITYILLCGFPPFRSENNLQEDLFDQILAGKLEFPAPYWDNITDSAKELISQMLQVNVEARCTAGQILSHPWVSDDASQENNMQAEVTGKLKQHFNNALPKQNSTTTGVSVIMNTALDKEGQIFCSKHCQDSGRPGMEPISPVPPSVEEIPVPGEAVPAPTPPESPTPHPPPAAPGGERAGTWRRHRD

[13] = target: Tyrosine-protein kinase JAK1 (Homo sapiens) (UniProt P23458); conditions: Compound concentration 1000.0 nM
[14] = target: Mast/stem cell growth factor receptor Kit (Homo sapiens) (UniProt P10721); conditions: Compound concentration 1000.0 nM
[15] = target: Mitogen-activated protein kinase kinase kinase 13 (Homo sapiens) (UniProt O43283); conditions: Compound concentration 1000.0 nM
[16] = target: Phosphatidylinositol 4,5-bisphosphate 3-kinase catalytic subunit beta isoform (Homo sapiens) (UniProt P42338); conditions: Compound concentration 1000.0 nM
Sequence of Phosphatidylinositol 4,5-bisphosphate 3-kinase catalytic subunit beta isoform (Homo sapiens) (P42338 whole entry, looked up, canonical isoform): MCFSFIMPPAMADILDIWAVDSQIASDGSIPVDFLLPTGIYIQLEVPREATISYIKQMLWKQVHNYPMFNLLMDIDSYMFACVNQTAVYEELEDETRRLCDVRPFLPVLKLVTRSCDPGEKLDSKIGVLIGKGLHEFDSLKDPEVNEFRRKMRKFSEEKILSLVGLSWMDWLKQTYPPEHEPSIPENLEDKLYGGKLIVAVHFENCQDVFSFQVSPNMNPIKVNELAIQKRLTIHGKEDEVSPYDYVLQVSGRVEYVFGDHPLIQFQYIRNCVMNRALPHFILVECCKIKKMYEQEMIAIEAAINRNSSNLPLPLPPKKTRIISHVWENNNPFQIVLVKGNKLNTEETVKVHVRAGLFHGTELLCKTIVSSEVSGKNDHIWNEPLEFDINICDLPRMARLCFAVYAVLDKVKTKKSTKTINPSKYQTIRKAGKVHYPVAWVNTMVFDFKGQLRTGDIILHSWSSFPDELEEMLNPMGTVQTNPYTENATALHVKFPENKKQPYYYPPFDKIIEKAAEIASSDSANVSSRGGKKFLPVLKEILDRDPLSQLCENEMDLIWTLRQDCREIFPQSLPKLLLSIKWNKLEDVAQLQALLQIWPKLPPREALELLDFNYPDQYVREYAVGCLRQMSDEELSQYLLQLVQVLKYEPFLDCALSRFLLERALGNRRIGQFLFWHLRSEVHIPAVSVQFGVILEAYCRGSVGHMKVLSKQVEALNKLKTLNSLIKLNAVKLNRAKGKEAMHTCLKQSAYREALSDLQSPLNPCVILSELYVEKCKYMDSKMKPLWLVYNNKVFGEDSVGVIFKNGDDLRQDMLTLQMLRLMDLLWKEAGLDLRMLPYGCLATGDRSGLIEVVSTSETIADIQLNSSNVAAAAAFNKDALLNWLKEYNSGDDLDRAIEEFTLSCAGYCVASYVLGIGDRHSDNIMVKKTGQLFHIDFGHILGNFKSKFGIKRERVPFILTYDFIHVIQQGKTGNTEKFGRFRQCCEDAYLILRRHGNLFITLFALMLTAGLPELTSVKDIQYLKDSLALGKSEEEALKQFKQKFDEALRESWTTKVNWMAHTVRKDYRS

[17] = target: Calcium/calmodulin-dependent protein kinase type II subunit alpha (Homo sapiens) (UniProt Q9UQM7); conditions: Compound concentration 1000.0 nM
Sequence of Calcium/calmodulin-dependent protein kinase type II subunit alpha (Homo sapiens) (Q9UQM7 whole entry): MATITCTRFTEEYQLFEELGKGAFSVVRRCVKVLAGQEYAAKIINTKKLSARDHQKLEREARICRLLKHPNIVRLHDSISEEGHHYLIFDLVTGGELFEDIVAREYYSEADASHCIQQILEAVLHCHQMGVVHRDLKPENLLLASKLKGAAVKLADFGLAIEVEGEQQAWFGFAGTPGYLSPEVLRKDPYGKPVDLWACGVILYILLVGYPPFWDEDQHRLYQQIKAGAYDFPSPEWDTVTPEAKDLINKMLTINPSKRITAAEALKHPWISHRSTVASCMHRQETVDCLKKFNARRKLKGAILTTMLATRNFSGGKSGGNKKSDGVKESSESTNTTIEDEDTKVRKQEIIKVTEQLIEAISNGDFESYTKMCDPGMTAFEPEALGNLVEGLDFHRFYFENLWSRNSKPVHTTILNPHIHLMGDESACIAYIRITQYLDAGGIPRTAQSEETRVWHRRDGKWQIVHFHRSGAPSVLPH

[18] = target: Ribosomal protein S6 kinase alpha-3 (Homo sapiens) (UniProt P51812); conditions: Compound concentration 1000.0 nM
[19] = target: Serine/threonine-protein kinase WNK3 (Homo sapiens) (UniProt Q9BYP7); conditions: Compound concentration 1000.0 nM
[20] = target: Tyrosine-protein kinase Yes (Homo sapiens) (UniProt P07947); conditions: Compound concentration 1000.0 nM
[21] = system: Receptor-type tyrosine-protein kinase FLT3 (Homo sapiens), P36888 [N841I]; conditions: Compound concentration 1000.0 nM
[22] = target: Phosphatidylinositol 4,5-bisphosphate 3-kinase catalytic subunit delta isoform (Homo sapiens) (UniProt O00329); conditions: Compound concentration 1000.0 nM
[23] = target: Non-receptor tyrosine-protein kinase TYK2 (Homo sapiens) (UniProt P29597); conditions: Compound concentration 1000.0 nM
Sequence of Non-receptor tyrosine-protein kinase TYK2 (Homo sapiens) (P29597 whole entry): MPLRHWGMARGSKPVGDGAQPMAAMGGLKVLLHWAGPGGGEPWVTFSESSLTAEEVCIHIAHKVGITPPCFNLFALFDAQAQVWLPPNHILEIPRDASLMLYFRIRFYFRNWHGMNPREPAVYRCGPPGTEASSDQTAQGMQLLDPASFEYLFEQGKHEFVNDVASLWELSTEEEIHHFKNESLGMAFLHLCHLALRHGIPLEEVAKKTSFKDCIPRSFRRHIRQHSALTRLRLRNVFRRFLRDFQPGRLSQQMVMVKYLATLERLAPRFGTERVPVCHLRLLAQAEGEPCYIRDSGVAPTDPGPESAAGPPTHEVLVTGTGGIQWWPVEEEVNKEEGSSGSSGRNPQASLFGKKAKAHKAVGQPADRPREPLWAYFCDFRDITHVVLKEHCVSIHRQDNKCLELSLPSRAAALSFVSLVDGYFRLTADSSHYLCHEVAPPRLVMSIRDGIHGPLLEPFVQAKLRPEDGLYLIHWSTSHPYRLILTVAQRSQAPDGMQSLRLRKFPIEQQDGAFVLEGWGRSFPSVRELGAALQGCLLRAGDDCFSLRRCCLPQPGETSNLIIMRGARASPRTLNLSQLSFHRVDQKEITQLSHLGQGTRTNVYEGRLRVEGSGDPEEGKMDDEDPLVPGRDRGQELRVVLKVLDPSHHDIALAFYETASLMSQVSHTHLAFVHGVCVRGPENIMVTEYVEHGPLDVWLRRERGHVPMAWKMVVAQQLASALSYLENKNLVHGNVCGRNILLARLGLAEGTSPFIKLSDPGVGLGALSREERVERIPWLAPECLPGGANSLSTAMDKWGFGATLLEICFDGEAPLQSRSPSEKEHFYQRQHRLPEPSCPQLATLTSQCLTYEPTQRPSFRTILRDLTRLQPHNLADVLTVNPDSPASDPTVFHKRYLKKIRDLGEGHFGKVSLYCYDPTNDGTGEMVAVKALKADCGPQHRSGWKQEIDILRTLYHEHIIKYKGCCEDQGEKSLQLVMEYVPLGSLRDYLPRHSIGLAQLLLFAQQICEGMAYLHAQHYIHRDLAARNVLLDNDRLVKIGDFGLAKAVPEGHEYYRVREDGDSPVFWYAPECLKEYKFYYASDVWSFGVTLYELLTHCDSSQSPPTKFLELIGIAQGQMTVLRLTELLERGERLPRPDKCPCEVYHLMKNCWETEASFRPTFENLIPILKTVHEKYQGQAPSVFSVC

[24] = target: Serine/threonine-protein kinase TBK1 (Homo sapiens) (UniProt Q9UHD2); conditions: Compound concentration 1000.0 nM
[25] = target: Calcium/calmodulin-dependent protein kinase type IV (Homo sapiens) (UniProt Q16566); conditions: Compound concentration 1000.0 nM
[26] = target: STE20/SPS1-related proline-alanine-rich protein kinase (Homo sapiens) (UniProt Q9UEW8); conditions: Compound concentration 1000.0 nM
[27] = target: Serine/threonine-protein kinase NLK (Homo sapiens) (UniProt Q9UBE8); conditions: Compound concentration 1000.0 nM
[28] = target: Mitogen-activated protein kinase 15 (Homo sapiens) (UniProt Q8TD08); conditions: Compound concentration 1000.0 nM
[29] = target: Non-receptor tyrosine-protein kinase TYK2 (Homo sapiens) (UniProt P29597); conditions: Compound concentration 1000.0 nM; remark: listed apart in the source
[30] = target: Activin receptor type-1 (Homo sapiens) (UniProt Q04771); conditions: Compound concentration 1000.0 nM
[31] = target: Methionine aminopeptidase 2 (Homo sapiens, UniProt P50579); test: Biochemical activity-MetAP2 using Co
[32] = target: Activin receptor type-2B (Homo sapiens) (UniProt Q13705); conditions: Compound concentration 1000.0 nM
[33] = target: Inhibitor of nuclear factor kappa-B kinase subunit epsilon (Homo sapiens) (UniProt Q14164); conditions: Compound concentration 1000.0 nM
[34] = target: SNF-related serine/threonine-protein kinase (Homo sapiens) (UniProt Q9NRH2); conditions: Compound concentration 1000.0 nM
[35] = target: Ribosomal protein S6 kinase alpha-1 (Homo sapiens) (UniProt Q15418); conditions: Compound concentration 1000.0 nM
[36] = target: Dual specificity protein kinase CLK1 (Homo sapiens) (UniProt P49759); conditions: Compound concentration 1000.0 nM
[37] = target: MAP kinase-activated protein kinase 5 (Homo sapiens) (UniProt Q8IW41); conditions: Compound concentration 1000.0 nM
[38] = target: Protein kinase C epsilon type (Homo sapiens) (UniProt Q02156); conditions: Compound concentration 1000.0 nM
[39] = target: Serine/threonine-protein kinase D1 (Homo sapiens) (UniProt Q15139); conditions: Compound concentration 1000.0 nM
[40] = target: Serine/threonine-protein kinase TAO3 (Homo sapiens) (UniProt Q9H2K8); conditions: Compound concentration 1000.0 nM
Sequence of Serine/threonine-protein kinase TAO3 (Homo sapiens) (Q9H2K8 whole entry): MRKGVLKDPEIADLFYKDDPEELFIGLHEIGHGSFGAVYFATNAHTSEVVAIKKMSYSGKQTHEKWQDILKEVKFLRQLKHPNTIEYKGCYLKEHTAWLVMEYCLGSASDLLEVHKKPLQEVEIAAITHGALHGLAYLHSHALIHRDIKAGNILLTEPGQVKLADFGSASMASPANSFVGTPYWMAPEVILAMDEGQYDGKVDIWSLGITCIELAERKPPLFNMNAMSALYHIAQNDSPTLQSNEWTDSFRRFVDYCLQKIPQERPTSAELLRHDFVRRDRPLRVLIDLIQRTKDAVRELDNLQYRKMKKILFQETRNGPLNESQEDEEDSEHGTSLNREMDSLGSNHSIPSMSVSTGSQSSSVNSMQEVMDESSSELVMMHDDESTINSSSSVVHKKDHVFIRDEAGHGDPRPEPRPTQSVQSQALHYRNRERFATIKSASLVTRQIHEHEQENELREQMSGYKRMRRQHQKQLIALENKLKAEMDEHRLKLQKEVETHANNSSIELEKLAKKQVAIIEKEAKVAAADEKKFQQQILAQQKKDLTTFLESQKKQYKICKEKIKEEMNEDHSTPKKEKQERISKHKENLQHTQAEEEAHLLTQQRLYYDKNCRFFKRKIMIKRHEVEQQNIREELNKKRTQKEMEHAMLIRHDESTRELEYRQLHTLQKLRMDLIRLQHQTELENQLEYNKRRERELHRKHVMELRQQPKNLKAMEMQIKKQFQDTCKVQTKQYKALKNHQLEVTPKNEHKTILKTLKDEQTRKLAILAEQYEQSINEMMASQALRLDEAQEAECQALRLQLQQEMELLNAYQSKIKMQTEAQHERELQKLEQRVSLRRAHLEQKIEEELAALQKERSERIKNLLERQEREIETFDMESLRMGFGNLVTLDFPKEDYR

[41] = target: Serine/threonine-protein kinase Nek6 (Homo sapiens) (UniProt Q9HC98); conditions: Compound concentration 1000.0 nM
Sequence of Serine/threonine-protein kinase Nek6 (Homo sapiens) (Q9HC98 whole entry): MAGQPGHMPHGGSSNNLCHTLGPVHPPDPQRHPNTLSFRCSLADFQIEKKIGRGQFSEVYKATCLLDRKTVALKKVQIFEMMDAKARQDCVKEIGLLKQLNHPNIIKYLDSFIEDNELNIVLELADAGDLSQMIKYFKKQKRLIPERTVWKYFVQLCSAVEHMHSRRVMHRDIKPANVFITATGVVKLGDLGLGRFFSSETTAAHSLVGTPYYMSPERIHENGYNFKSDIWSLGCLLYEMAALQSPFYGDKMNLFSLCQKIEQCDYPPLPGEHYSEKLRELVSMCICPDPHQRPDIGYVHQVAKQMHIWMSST

[42] = target: NT-3 growth factor receptor (Homo sapiens) (UniProt Q16288); conditions: Compound concentration 1000.0 nM
[43] = target: GABA-A receptor; anion channel (Rattus norvegicus) (UniProt O09028+P15431+P18506+P18508+P19969+P20236+P23574+P23576+P28471+P28473+P30191+P62813+P63079+P63138+Q91ZM7+Q9ES14); conditions: Compound concentration 10.0 uM

Cc1nc(N2CC[C@@H](O)C2)ncc1-c1cc(C(F)(F)F)cc2[nH]ncc12 [TP-004]
active: IC50 [31] 0.031 µM | inhibition [43] 54.3%
inactive: residual activity [1] 100% | residual activity [2] 83% | residual activity [3] 87% | residual activity [4] 100% | residual activity [5] 81% | residual activity [6] 100% | residual activity [7] 61% | residual activity [8] 61% | residual activity [9] 100% | residual activity [10] 83% | residual activity [11] 72% | residual activity [12] 100% | residual activity [13] 78% | residual activity [14] 89% | residual activity [15] 56% | residual activity [16] 60% | residual activity [17] 100% | residual activity [18] 58% | residual activity [19] 67% | residual activity [20] 90% | residual activity [21] 88% | residual activity [22] 72% | residual activity [23] 58% | residual activity [24] 82% | residual activity [25] 100% | residual activity [26] 99% | residual activity [27] 100% | residual activity [28] 86% | residual activity [29] 70% | residual activity [30] 80% | residual activity [32] 79% | residual activity [33] 89% | residual activity [34] 96% | residual activity [35] 91% | residual activity [36] 87% | residual activity [37] 68% | residual activity [38] 88% | residual activity [39] 75% | residual activity [40] 82% | residual activity [41] 89% | residual activity [42] 66%
